According to patent US6124269A, “2-Halo-6-O-substituted ketolide derivatives” (priority 1998, dated 2000):
≈ marks a conversion by molar mass, not a printed value.

How the values were obtained:
Assay type in all cases: cell-based
[1] = tested on: Escherichia coli SS; experiment: In vitro agar dilution MIC, organism code RR; settings: Table 1B, in µg/mL (unit assumed)
Description: (§1) Representative compounds of the present invention were assayed in vitro for antibacterial activity as follows: Twelve petri dishes containing successive aqueous dilutions of the test compound mixed with 10 mL of sterilized Brain Heart Infusion (BHI) agar (Difco 0418-01-5) were prepared. Each plate was inoculated with 1:100 (or 1:10 for slow-growing strains, such as Micrococcus and Streptococcus) dilutions of up to 32 different microorganisms, using a Steers replicator block. The inoculated plates were incubated at 35-37° C. for 20 to 24 hours. In addition, a control plate, using BHI agar containing no test compound, was prepared and incubated at the beginning and end of each test.
(§2) An additional plate containing a compound having known susceptibility patterns for the organisms being tested and belonging to the same antibiotic class as the test compound was also prepared and incubated as a further control, as well as to provide test-to-test comparability.
(§3) After incubation, each plate was visually inspected. The minimum inhibitory concentration (MIC) was defined as the lowest concentration of drug yielding no growth, a slight haze, or sparsely isolated colonies on the inoculum spot as compared to the growth control.

[2] = tested on: Streptococcus pyogenes PIU 2548; experiment: In vitro agar dilution MIC, organism code NN; settings: unit assumed
Description: as §1, §2, §3

[3] = tested on: Streptococcus pyogenes EES61; experiment: In vitro agar dilution MIC, organism code LL; settings: unit assumed
Description: as §1, §2, §3

[4] = tested on: Haemophilis influenzae DILL AMP R; experiment: In vitro agar dilution MIC, organism code WW; settings: unit assumed
Description: as §1, §2, §3

[5] = tested on: Escherichia coli DC-2; experiment: In vitro agar dilution MIC, organism code SS; settings: Table 1B, unit assumed
Description: as §1, §2, §3

[6] = tested on: Staphylococcus epidermidis 3519; experiment: In vitro agar dilution MIC, organism code HH; settings: Table 1B, in µg/mL (unit assumed)
Description: as §1, §2, §3

[7] = tested on: Candida albicans CCH 442; experiment: In vitro agar dilution MIC, organism code TT; settings: Table 1B, unit assumed
Description: as §1, §2, §3

[8] = tested on: Streptococcus pneumoniae ATCC 6303; experiment: In vitro agar dilution MIC, organism code XX; settings: unit assumed
Description: as §1, §2, §3

[9] = tested on: Staphylococcus aureus A5177; experiment: In vitro agar dilution MIC, organism code BB; settings: Table 1B, in µg/mL (unit assumed)
Description: as §1, §2, §3

[10] = tested on: Nocardia asteroides ATCC 9970; experiment: In vitro agar dilution MIC, organism code VV; settings: Table 1B, in µg/mL (unit assumed)
Description: as §1
as §2, with “comparability. Erythromycin A was used for this purpose.” for “comparability.”
as §3

[11] = tested on: Staphylococcus aureus ATCC 6538P; experiment: In vitro agar dilution MIC, organism code AA; settings: Table 1B, unit assumed
Description: as §1, §2, §3

[12] = tested on: Staphylococcus aureus NCTC10649M; experiment: In vitro agar dilution MIC, organism code EE; settings: Table 1B, unit assumed
Description: as §1, §2, §3

[13] = tested on: Staphylococcus aureus 1775; experiment: In vitro agar dilution MIC, organism code GG; settings: Table 1B, unit assumed
Description: as §1, §2, §3

[14] = tested on: Streptococcus agalactiae CMX 508; experiment: In vitro agar dilution MIC, organism code KK; settings: Table 1B, unit assumed
Description: as §1, §2, §3

[15] = tested on: Streptococcus pyogenes 930; experiment: In vitro agar dilution MIC, organism code MM; settings: unit assumed
Description: as §1, §2, §3

[16] = tested on: Streptococcus pneumoniae 5649; experiment: In vitro agar dilution MIC, organism code ZZA; settings: unit assumed
Description: as §1, §2, §3

[17] = tested on: Staphylococcus aureus A-5278; experiment: In vitro agar dilution MIC, organism code CC; settings: Table 1B, unit assumed
Description: as §1, §2, §3

[18] = tested on: Streptococcus bovis A-5169; experiment: In vitro agar dilution MIC, organism code JJ; settings: Table 1B, unit assumed
Description: as §1, §2, §3

[19] = tested on: Enterococcus faecium ATCC 8043; experiment: In vitro agar dilution MIC, organism code II; settings: Table 1B, unit assumed
Description: as §1, §2, §3

[20] = tested on: Mycobacterium smegmatis ATCC 114; experiment: In vitro agar dilution MIC, organism code UU; settings: Table 1B, in µg/mL (unit assumed)
Description: as §1, §2, §3

[21] = tested on: Micrococcus luteus ATCC 4698; experiment: In vitro agar dilution MIC, organism code PP; settings: Table 1B, in µg/mL (unit assumed)
Description: as §1, §2, §3

[22] = tested on: Staphylococcus aureus CMX 553; experiment: In vitro agar dilution MIC, organism code FF; settings: Table 1B, unit assumed
Description: as §1, §2, §3

[23] = tested on: Streptococcus pneumoniae 5979; experiment: In vitro agar dilution MIC, organism code ZZ; settings: unit assumed
Description: as §1, §2, §3

[24] = tested on: Micrococcus luteus ATCC 9341; experiment: In vitro agar dilution MIC, organism code OO; settings: Table 1B, unit assumed
Description: as §1, §2, §3

[25] = tested on: Escherichia coli JUHL; experiment: In vitro agar dilution MIC, organism code QQ; settings: Table 1B, in µg/mL (unit assumed)
Description: as §1, §2, §3

[26] = tested on: Streptococcus pneumoniae GYR 1171; experiment: In vitro agar dilution MIC, organism code YY; settings: Table 1B, unit assumed
Description: as §1, §2, §3

[27] = tested on: Staphylococcus aureus CMX 642A; experiment: In vitro agar dilution MIC, organism code DD; settings: Table 1B, unit assumed
Description: as §1, §2, §3

Structure (SMILES)	MIC [1]	MIC ([2]; Table 1B) [µg/mL]	MIC ([3]; Table 1B) [µg/mL]	MIC ([4]; Table 1B) [µg/mL]	MIC [5] [µg/mL]	MIC [6]	MIC [7] [µg/mL]	MIC ([8]; Table 1B) [µg/mL]	MIC [9]	MIC [10]	MIC [11] [µg/mL]	MIC [12] [µg/mL]	MIC [13] [µg/mL]	MIC [14] [µg/mL]	MIC ([15]; Table 1B) [µg/mL]	MIC ([16]; Table 1B) [µg/mL]	MIC [17] [µg/mL]	MIC [18] [µg/mL]	MIC [19] [µg/mL]	MIC [20]	also measured
CC[C@H]1OC(=O)[C@@](C)(F)C(=O)[C@H](C)[C@@H](O[C@@H]2O[C@H](C)C[C@H](N(C)C)[C@H]2O)[C@](C)(OC/C=C/c2ccccc2)C[C@@H](C)C(=O)[C@H](C)[C@H]2NC(=O)O[C@@]21C [Example 7]	0.1	0.05 (≈ 0.0682 µM)	≤ 0.005	2 (≈ 2.73 µM)	25 (≈ 34.1 µM)	0.05	> 100	≤ 0.004	0.05	≤ 0.005	0.05 (≈ 0.0682 µM)	0.05 (≈ 0.0682 µM)	100 (≈ 136 µM)	≤ 0.005	25 (≈ 34.1 µM)	0.25 (≈ 0.341 µM)	100 (≈ 136 µM)	≤ 0.005	0.02 (≈ 0.0273 µM)	0.05	MIC ([2]; Table 1D): 0.25 µg/mL (≈ 0.341 µM); MIC ([3]; Table 1D): ≤ 0.04 µg/mL; MIC ([4]; Table 1D): 2 µg/mL (≈ 2.73 µM); MIC ([8]; Table 1D): ≤ 0.04 µg/mL; MIC ([15]; Table 1D): 16 µg/mL (≈ 21.8 µM); MIC ([16]; Table 1D): 0.25 µg/mL (≈ 0.341 µM); MIC [21]: 0.02; MIC [22]: 0.05 µg/mL (≈ 0.0682 µM); MIC ([23]; Table 1B): 64 µg/mL (≈ 87.3 µM); MIC ([23]; Table 1D): 64 µg/mL (≈ 87.3 µM); MIC [24]: ≤ 0.005 µg/mL; MIC [25]: 50; MIC [26]: ≤ 0.004 µg/mL; MIC [27]: 0.05 µg/mL (≈ 0.0682 µM)
CC[C@H]1OC(=O)[C@@](C)(F)C(=O)[C@H](C)[C@@H](O[C@@H]2O[C@H](C)C[C@H](N(C)C)[C@H]2O)[C@](C)(OC/C=C/c2ccc3nccnc3c2)C[C@@H](C)C(=O)[C@H](C)[C@H]2NC(=O)O[C@@]21C [Example 12]	0.1	0.05 (≈ 0.0637 µM)	0.01 (≈ 0.0127 µM)	2 (≈ 2.55 µM)	12.5 (≈ 15.9 µM)	0.05	> 100	≤ 0.004	0.05	≤ 0.005	0.05 (≈ 0.0637 µM)	0.05 (≈ 0.0637 µM)	> 100	0.01 (≈ 0.0127 µM)	0.2 (≈ 0.255 µM)	0.125 (≈ 0.159 µM)	> 100	≤ 0.005	0.01 (≈ 0.0127 µM)	0.2	MIC ([2]; Table 1D): 0.125 µg/mL (≈ 0.159 µM); MIC ([3]; Table 1D): ≤ 0.04 µg/mL; MIC ([4]; Table 1D): 2 µg/mL (≈ 2.55 µM); MIC ([8]; Table 1D): ≤ 0.004 µg/mL; MIC ([15]; Table 1D): 0.5 µg/mL (≈ 0.637 µM); MIC ([16]; Table 1D): 0.125 µg/mL (≈ 0.159 µM); MIC [21]: 0.05; MIC [22]: 0.05 µg/mL (≈ 0.0637 µM); MIC ([23]; Table 1B): 1 µg/mL (≈ 1.27 µM); MIC ([23]; Table 1D): 1 µg/mL (≈ 1.27 µM); MIC [24]: ≤ 0.005 µg/mL; MIC [25]: 12.5; MIC [26]: ≤ 0.004 µg/mL; MIC [27]: 0.05 µg/mL (≈ 0.0637 µM)
C=CCO[C@]1(C)C[C@@H](C)C(=O)[C@H](C)[C@H]2NC(=O)O[C@]2(C)[C@@H](CC)OC(=O)[C@@](C)(F)C(=O)[C@H](C)[C@H]1O[C@@H]1O[C@H](C)C[C@H](N(C)C)[C@H]1O [Example 4]	0.78	0.39 (≈ 0.594 µM)	0.2 (≈ 0.305 µM)	8 (≈ 12.2 µM)	> 100	0.78	> 100	0.06 (≈ 0.0914 µM)	0.78	0.39	0.78 (≈ 1.19 µM)	0.78 (≈ 1.19 µM)	> 100	0.2 (≈ 0.305 µM)	> 100	0.25 (≈ 0.381 µM)	> 100	0.2 (≈ 0.305 µM)	0.2 (≈ 0.305 µM)	6.2	MIC [21]: 0.78; MIC [22]: 0.78 µg/mL (≈ 1.19 µM); MIC ([23]; Table 1B): > 128 µg/mL; MIC [24]: 0.39 µg/mL (≈ 0.594 µM); MIC [25]: > 100; MIC [26]: 0.03 µg/mL (≈ 0.0457 µM); MIC [27]: 0.78 µg/mL (≈ 1.19 µM)
